Reference: patent US20210393521A1, “PREPARATION OF A PHARMACEUTICAL COMPOSITION OF OLODATEROL, TIOTROPIUM BROMIDE AND BUDESONIDE” (priority 2020, published 2021)
In brackets after ≈: the same amount, converted by molar mass.

Legend:
[1] = background statement; cited from earlier work
[2] = Solubility test of BD in SBECD and Tween 80 solutions; format: physicochemical
Description: Solubility test to investigate the solubilizing effect of SBECD and Tween 80 as solubilizers on BD, and to investigate the solubility of BD at different concentrations.
Investigation of the solubility of BD under different concentrations of SBECD: Weigh 0.1 g, 0.3 g, 0.5 g, and 1.0 g of […] into a 10 ml EP tube, add 10 ml of pure water, and shake until the […] is completely dissolved, then add excess BD (about 500 mg/100 mL), and wrap the EP tube in tin foil to protect from light. After protecting from light, place the EP tube on a shaker, shake for 24 hours, and centrifuge to collect the supernatant.

Row | BD Solubility ([2]; SBECD concentration 1%) | BD Solubility ([2]; SBECD concentration 3%) | BD Solubility ([2]; SBECD concentration 5%) | BD Solubility ([2]; SBECD concentration 10%) | BD Solubility ([2]; Tween 80 concentration 5 mg/100 ml) | BD Solubility ([2]; Tween 80 concentration 10 mg/100 ml) | BD Solubility ([2]; Tween 80 concentration 20 mg/100 ml) | BD Solubility ([2]; Tween 80 concentration 1%) | BD Solubility ([2]; Tween 80 concentration 3%) | BD Solubility ([2]; Tween 80 concentration 5%) | BD Solubility ([2]; Tween 80 concentration 10%) | solubility at 24 h ([2]; Tween 80 solution in water, aqueous with cosolvent or surfactant or cyclodextrin, thermodynamic from solid, Tween 80 concentration 20 mg/100 ml) | SMILES | half-life [1] | maintains bronchiectatic activity for [1]
1 |  |  |  |  |  |  |  |  |  |  |  |  | COc1ccc(CC(C)(C)NC[C@H](O)c2cc(O)cc3c2OCC(=O)N3)cc1 [Olodaterol, 6-hydroxy-8-[(1R)-1-hydroxy-2-{[1-(4-methoxyphenyl)-2-methylpropan-2-yl]amino}ethyl]-3,4-dihydro-2H-1,4-benzoxazin-3-one] | more than 12 h | 24 h
2 | 16.91 mg/100 ml | 40.28 mg/100 ml | 61.91 mg/100 ml | 81.3 mg/100 ml | 0.224 mg/100 ml | 0.256 mg/100 ml | 0.292 mg/100 ml | 16.54 mg/100 ml | 38.88 mg/100 ml | 64.84 mg/100 ml | 118.79 mg/100 ml | 2.92 µg/mL (≈ 6.78 µM) | CCCC1O[C@@H]2C[C@H]3[C@@H]4CCC5=CC(=O)C=C[C@]5(C)[C@H]4[C@@H](O)C[C@]3(C)[C@]2(C(=O)CO)O1 (stereo partly drawn) [BD, 11β,21-dihydroxy-16α,17α-(butylidenebis(oxy))pregna-1,4-diene-3,20-dione] |  | 
